Assay results published in patent US10681909B2, “Herbicidal triazoles” (FMC Corporation, priority 2014, dated 2020).

Experiments:
wheat = assay: Test A postemergence; format: in vivo, Triticum aestivum; settings: Triticum aestivum, post-emergence, 240 h, 0 to 100 scale (0 no effect, 100 complete control), approx. 10 d, read-out: Plant response rating, Wheat; for plant injury at 125 g/ha: 125 g ai/ha; for plant injury at 500 g/ha: 500 g ai/ha
Method in brief: (§1)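 Test chemicals in a non-phytotoxic solvent with surfactant were applied as a directed soil spray preemergence to seeds sown in loam/sand. Postemergence sprays went to plants 2–10 cm tall at the one- to two-leaf stage. A dash means no result.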

barnyardgrass [1] = assay: Test A preemergence; format: in vivo, Echinochloa crus-galli; settings: Echinochloa crus-galli, pre-emergence, 240 h, 0 to 100 scale (0 no effect, 100 complete control), read-out: Plant response rating, Barnyardgrass; for pest or weed control at 125 g/ha: 125 g ai/ha; for pest or weed control at 500 g/ha: 500 g ai/ha, approx. 10 d
Method in brief: as §1

foxtail, giant = assay: Test A postemergence; format: in vivo, Setaria faberii; settings: Setaria faberi, post-emergence, 240 h, 0 to 100 scale (0 no effect, 100 complete control), approx. 10 d, read-out: Plant response rating, Foxtail, Giant; for pest or weed control at 125 g/ha: 125 g ai/ha; for pest or weed control at 500 g/ha: 500 g ai/ha
Method in brief: as §1

pigweed = assay: Test A postemergence; format: in vivo, Amaranthus retroflexus; settings: Amaranthus retroflexus, post-emergence, 240 h, 0 to 100 scale (0 no effect, 100 complete control), approx. 10 d, read-out: Plant response rating, Pigweed; for pest or weed control at 125 g/ha: 125 g ai/ha; for pest or weed control at 500 g/ha: 500 g ai/ha
Method in brief: as §1

barnyardgrass [2] = assay: Test B flooded paddy test; format: in vivo, Echinochloa crus-galli; settings: Echinochloa crus-galli, 360 h, 125 g ai/ha, applied to paddy water at 2-leaf stage, visual rating after 13 to 15 d, scale 0 (no effect) to 100 (complete control), read-out: Plant response rating, Barnyardgrass, Flood
Method in brief: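 Pots were flooded to 3 cm above the soil at treatment, and compounds were applied directly into the paddy water. That depth was held throughout. After 13 to 15 d in a greenhouse, plants were rated visually against untreated controls.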

Structure (SMILES)	plant injury at 125 g/ha (wheat) [%]	plant injury at 500 g/ha (wheat) [%]	pest or weed control at 125 g/ha (barnyardgrass [1]) [%]	pest or weed control at 500 g/ha (barnyardgrass [1]) [%]	pest or weed control at 125 g/ha (foxtail, giant) [%]	pest or weed control at 500 g/ha (foxtail, giant) [%]	pest or weed control at 125 g/ha (pigweed) [%]	pest or weed control at 500 g/ha (pigweed) [%]	pest or weed control at 125 g/ha (barnyardgrass [2]) [%]
Cn1nc(-c2ccc(F)cc2)nc1Oc1cccc(C(F)(F)F)c1 [Compound 5, 3-(4-fluorophenyl)-1-methyl-5-[3-(trifluoromethyl)phenoxy]-1H-1,2,4-triazole]	0	10	0	20	20	70	90	100	
Cn1nc(-c2ccc(F)cc2)nc1C(O)c1ccnc(C(F)(F)F)c1 (stereo not drawn) [Compound 14, α-[3-(4-fluorophenyl)-1-methyl-1H-1,2,4-triazol-5-yl]-2-(trifluoromethyl)-4-pyridinemethanol]	10	30	0	10	20	30	60	90	0
